Measured values from patent US7329494B2, “Method of detection and quantification of cGMP by using a cGMP-visualizing probe” (Japan Science and Technology Corporation, priority 2000, dated 2008).

System: intracellular cGMP in CGY-Del1-expressing HEK293 cells
Experiment: Intracellular cGMP detected by emission ratio in CGY-expressing HEK293 cells stimulated with NOC-7
Assay type: cell-based, Human
Experimental: Human embryonic kidney cells (HEK293) were cultured in Dulbecco's modified eagle medium supplemented with 10% FCS, 1 mM sodium pyruvate, and 0.1 mM nonessential amino acids at 37° C. in 5% CO2, to give HEK293 cells.
The resulting HEK293 cells were transfected by the same method as in Example 2 with CGY-Del1, CGY-Del2, CGY-Del3 and CGY-Del4 expression vectors, to give HEK293 cells expressing each type of CGY.
The cGMP-visualizing probes were used to detect intracellular cGMP generated upon stimulation of the living cells with nitrogen monoxide (NO).
First, to activate the soluble guanylyl cyclase in the HEK293 cells having CGY-Del1 introduced therein obtained in Example 6, NOC-7, a compound for releasing NO spontaneously in a rate-controlled manner, was added to give its final extracellular concentration of 500 μM.
Accordingly, 1 mM 8-Br-cGMP, a phosphodiesterase-resistant analogue of cGMP, was added to the system described above.

For `Nc1nc2c(nc(Br)n2[C@@H]2O[C@@H]3COP(=O)(O)O[C@H]3[C@H]2O)c(=O)[nH]1` [8-Br-cGMP], the “emission ratio on addition after NOC-7-induced decrease and recovery” value (added 900 seconds after 500 μM NOC-7, 1 mM 8-Br-cGMP) was “decreased again”.

For `CNCCCN(C)/[N+]([O-])=N/O` [NOC-7], the “emission ratio upon addition of NOC-7” value (500 μM NOC-7) was “rapidly decreased”.

In the case of `O=c1onc2cnc3ccccc3n12` [ODQ], the “NOC-7-induced emission ratio change in cells pre-treated with ODQ” value (10 μM ODQ, 500 μM NOC-7) was “change in the emission ratio elicited by NOC-7 was not observed”.

In the case of `CCCOc1ccccc1-c1nc2nn[nH]c2c(=O)[nH]1` [zaprinast], the “NOC-7-induced emission ratio change in cells treated with zaprinast” value (100 μM zaprinast, 500 μM NOC-7) was “later slower increase in the emission ratio was not observed”.
